Literature values as cited in patent US12064400B1 (priority 2022, dated 2024).

Tests used:
[1] = in vivo
[2] = in vivo; remark: listed apart in the source

SMILES	time in which a human body may absorb peak levels [1]	higher risk for developing a bleed when taking naproxen [2]	people in whom common and serious side effects may occur [2]
COc1ccc2cc([C@H](C)C(=O)O)ccc2c1 [naproxen sodium]	one to two	–	–
COc1ccc2cc([C@H](C)C(=O)O)ccc2c1 [naproxen]	two to four	ten	three to nine
